The text below walks through data of patent EP0642787A2, “Cessation of tobacco use” (ELI LILLY AND COMPANY, priority 1993, dated 1995).

The subject of assay [1] is 5HT1A receptor. Kind of assay: Serotonin syndrome test (antagonism of 8-OH-DPAT-induced signs). It is filed as in vivo, rats. The following applies: exception at 1.0 or 10 mg/kg s.c. (dose not specified); 4 point scale 0-3.
In assay [2] the test system is 5HT1A receptor. The assay is described as above. The format is in vivo, rats. Particulars: 4 point scale 0-3; for LLR score / FBP score / lower lip retraction (LLR) score / flat body posture (FBP) score: 8-OH-DPAT alone scores 3. As for the experimental part: Adult male rats are placed singly in clear plastic cages for behavioral observations. Preferably, the cages have metal screen lids and fresh sawdust covering the floor. The animals are adapted to the cages for a short period, and then the compounds to be tested are administered at doses and route determined by the experimenter, based on the probable potency of the test compounds. After 15 minutes, each rat is then given a subcutaneous injection of 0.1 mg/kg of 8-hydroxy-2-dipropylaminotetralin (8-OH-DPAT). Fifteen minutes after administration of the 8-OH-DPAT, the animals are evaluated for evidence of the following signs: reciprocal forepaw treading; Straub tail (rigid or corkscrew); lateral head weaving; hind limb abduction; resting tremor, especially of the head and forepaws; lower-lip retraction; and flat-body posture.
Those signs are produced by 8-OH-DPAT, and the administration of 5HT1A antagonists is able to block or greatly attenuate the appearance of the signs.

In assay [3] the target is 5HT1A receptor (Homo sapiens, UniProt P08908). Particulars: partial agonist; cited from earlier work.
The mark [4] stands for this setting: 3 mg/kg test compound s.c., then 8-OH-DPAT 0.1 mg/kg s.c.

5HT1A receptor (Homo sapiens, UniProt P08908), sequence (P08908 whole entry): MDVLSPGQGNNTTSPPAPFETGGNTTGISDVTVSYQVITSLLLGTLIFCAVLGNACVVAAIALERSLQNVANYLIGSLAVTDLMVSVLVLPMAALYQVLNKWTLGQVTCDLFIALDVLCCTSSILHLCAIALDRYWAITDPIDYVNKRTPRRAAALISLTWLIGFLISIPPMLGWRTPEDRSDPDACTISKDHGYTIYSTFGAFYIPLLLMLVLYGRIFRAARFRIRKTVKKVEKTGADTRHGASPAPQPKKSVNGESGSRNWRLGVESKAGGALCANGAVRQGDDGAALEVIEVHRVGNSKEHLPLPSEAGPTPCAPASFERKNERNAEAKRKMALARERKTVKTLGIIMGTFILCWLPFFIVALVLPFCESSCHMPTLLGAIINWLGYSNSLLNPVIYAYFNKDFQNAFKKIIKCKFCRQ

As for `OC(CN[C@@H]1C[C@H]2CC[C@@H]1C2)COc1cccc2[nH]ccc12` (relative stereo) [(exo)-1-(4-indolyloxy)-3-norbornylamino-2-propanol], the “LLR score at 20 minutes after administration of 8-OH-DPAT” value in the assay on 5HT1A receptor [1] is reported as 1.25. For the same compound, the LLR score in the assay on 5HT1A receptor [2] (1 mg/kg test compound s.c.) and in the assay with 5HT1A receptor [2] (10 mg/kg test compound s.c.) was at most 1 in each case. Also, the FBP score with 5HT1A receptor [2] (1.0 mg/kg test compound s.c.) and with 5HT1A receptor [2] (10 mg/kg test compound s.c.) was at most 0.5 each time.

For `O=C(O)C(=O)O.OC(CNCCCCc1ccccc1)COc1cccc2[nH]ccc12` (stereo not shown) [1-(4-indolyloxy)-3-(4-phenylbutylamino)-2-propanol, oxalate salt], the FBP score in the assay with 5HT1A receptor [2] (10 mg/kg test compound s.c.) stood at 1.25. Also, in the assay with 5HT1A receptor [2] (10 mg/kg test compound s.c., score quickly declined from its peak), the “peak LLR score” value is 2.

Consider `OC(CNC1CCCCCC1)COc1cccc2[nH]ccc12` (stereo not shown) [1-(4-indolyloxy)-3-cycloheptylamino-2-propanol], for which the LLR score in the assay on 5HT1A receptor [2] (1 mg/kg test compound s.c.) is at most 1.75; with 5HT1A receptor [2] (10 mg/kg test compound s.c.), 0. The “lower lip retraction (LLR) score” value in the assay on 5HT1A receptor [2] (setting [4]) is at most 1.75. For the same compound, the FBP score entry in the assay with 5HT1A receptor [2] (doses of 1 mg/kg and above s.c.) is reported as “below 1”.

For `O=C(O)CCC(=O)O.O[C@@H](CNC1CCCCC1)COc1cccc2[nH]ccc12` [(S)-(-)-1-(4-indolyloxy)-3-cyclohexylamino-2-propanol, butanedioate salt], in the assay on 5HT1A receptor [2] (0.3 mg/kg test compound s.c.), the “flat body posture (FBP) score” value is on record as “below 2” and the “lower lip retraction (LLR) score” value is “below 2”. For the same compound, in the assay on 5HT1A receptor [2] (setting [4]), the “flat body posture (FBP) score” value is listed as “completely abolished” and the “lower lip retraction (LLR) score” value is “completely abolished”.

`O=C1CC2(CCCC2)CC(=O)N1CCCCN1CCN(c2ncccn2)CC1` [Buspirone]: the “antagonistic activity at the 5HT1A receptor” value on 5HT1A receptor [3] is on record as “about 30%”.
